The text below walks through data of US9636377B2, “Compositions and methods for the treatment of retinal degeneration” (UNIVERSITE DE STRASBOURG, priority 2012, dated 2017).

Series [1] has as its system peIF2α, CHOP10 and BiP. The series can be described thus: Western blot of UPR proteins in retinal explants. It is filed as cell-based, mouse. As to conditions: shRNA-treated retinal explants. The protocol: Wild-type animals were on a C57BL/6 background. The retinal explant culture procedure was carried out as previously described (Reidel et al., 2006). Briefly, 15-day-old mice were sacrificed by decapitation and eyes were removed and incubated in trypsin (catalog #25200-072, Gibco, Invitrogen, Paris, France) for 10 min at 37° C. Digestion was stopped by transferring eyes in DMEM+10% fetal bovine serum (catalog #31885-023 and 10500-064, Gibco) and incubation for 10 min at 4° C. Eyes were dissected in Ame's medium (catalog#15230-097, Gibco) supplemented with 6.5 g/L glucose. First, the sclera was carefully removed, leaving the retinal pigmented epithelium (RPE) attached to the eyeball. Incisions were made at the edge of the cornea to remove the cornea, lens and hyaloid body. Then four radial incisions were made in the retina to obtain a cross shape. Retinas were transferred on a nitrocellulose culture membrane (catalog # PICMORG50, Millipore, Molsheim, France) with RPE side down and cultivated in Neurobasal A medium (catalog #108888-022, Gibco) supplemented with B27 supplement (catalog #17504-044, Gibco), L-glutamine (catalog #35050-061, Gibco) and penicillin/streptomycin (catalog #15240; Gibco). Explants were maintained at 37° C. humidified 5% CO2. Specific gene silencing using lentiviruses carrying shRNA sequences for Bbs12, Perk, Hri or Rhodopsin (Santa Cruz Biotechnology, Tebu Bio, Yvelines, France) were performed by adding 20 μl of viral suspension (1×10^5 infectious units) in the culture medium overnight before whole medium change. The infected explants were then cultured for 3 days with a half medium change on a daily basis. Explants were not maintained longer in culture to avoid unspecific apoptosis in the different retinal layers. […] Drugs were added simultaneously with viral infection to the culture medium.
Proteins were obtained by lysis in RIPA buffer (150 mM NaCl, 50 mM TrisHCl pH 8, 0.1% Tween20, catalog # P7653, T3253, 93773, Sigma-Aldrich) supplemented with Protease Inhibitors Complete Mini EDTA-free (catalog #11836 170001, Roche, Boullogne-Billancourt, France), 1 mM NaVO4 and 25 mM NaF (catalog # S6508 and S7920, Sigma-Aldrich). After retina dissociation using dounce homogenizer, samples were sonicated and protein concentration was determined using Bradford reagent (catalog #500-0006, BioRad). For Western blotting, 80 μg of whole protein extracts were loaded per lane and Ponceau S staining was used as loading control for signal quantification. Antibody binding was visualized using SuperSignal West Femto Maximum Sensitivity Substrate (catalog #34095, ThermoFisher) on a Versadoc apparitus, BioRad. Signal quantification was assed using QuantityOne software from BioRad.
A general note: In western blotting, separated proteins are transferred to a membrane and probed.

The test system of series [2] is Bbs12−/− mouse retina. The series can be described thus: Scotopic electroretinogram of treated Bbs12−/− mice. As to conditions: 4 weeks of age; for scotopic ERG recording: systemic VPA 5 mg/mL, systemic GBZ 50 μM, or GIV (eye drops GBZ 7.5 μM + INH 500 μM, systemic VPA). It is filed as in vivo. The protocol:
(§1) The Bbs12^−/− mice were generated as previously described. Bbs12^−/− mice were obtained by crossing heterozygote animals. Mice were housed in humidity and temperature controlled rooms on a 12-hour light/12-hour dark cycle with food ad libitum and water. For anti-apoptotic treatments, animals were treated with eye drops from 2 to 4 weeks of age once a day; the eye drops contain GBZ 7.5 μM and Caspase Inhibitor 500 μM for the left eye and contain 5% DMSO for the right eye. […] Eye drop treatment was achieved from 2 to 4 weeks of age and systemic treatments were achieved from 3 to 4 weeks of age. At 4 weeks of age, electrophysiological analyses were performed and the retinas were harvested for molecular analysis.
Mice were dark adapted for 12 hours before recording. Those experiments were performed under dim red light. The mice were anesthetized with the same anesthesia mix described in the section above. The pupils were dilated with eye drops of atropine 0.3% (catalog # Atropine Alcon 0.3%, Alcon, Rueil-Malmaison, France). Animals were placed on a controlled heating pad and maintained at 37° C. during the procedure. The reference electrode was placed under the head skin and the background electrode was inserted in the tail of the animal. The measuring electrode was placed on the cornea, to optimize contact between the cornea and the gold electrode, and a drop of methylcellulose gel (catalog # Ocry-gel, TVM Laboratories, Lempdes, France) was added. Flashes were delivered though a Ganzfeld equipped with light-emitting diodes with maximum output of 318 cd/m^2 (Siem Biomédicale, Nimes, France). For the scotopic ERG, the flash duration varied from 3 to 5 ms with final flash output ranging from 0.001 to 1 cd*s/m^2. Responses were amplified, filtered (1-300-Hz band pass), and digitized (Visiosystem; Siem Biomédicale). The a and b waves were measured by using a 1-75-Hz band pass to filter oscillatory potentials.

Series [3] deals with eIF2α phosphorylation and BiP. Put plainly: Western blot of phosphorylated eIF2α and BiP in retinas of treated Bbs12−/− mice. It is filed as in vivo, mouse. The protocol:
as §1, with “Bbs12^-/-” for “Bbs12^−/−”, “analysis. […] After retina dissociation using dounce homogenizer, samples were sonicated and protein concentration was determined using Bradford reagent (catalog #500-0006, BioRad). For Western blotting, 80 μg of whole protein extracts were loaded per lane and Ponceau S staining was used as loading control for signal quantification. […] Signal quantification was assed using QuantityOne software from BioRad.” for “analysis.”

As for `CCCC(CCC)C(=O)O` [VPA, valproic acid], in series [1], the BiP protein content result is “increased”; the CHOP10 protein content entry is given as “decreased”; the “eIF2α phosphorylation (peIF2α), protein level” value was “decreased”. In series [2], the “a wave amplitude, scotopic ERG” value is “significantly increased”; the “b wave amplitude, scotopic ERG” value is reported as “higher”; the “scotopic ERG recording” value was “clear amelioration”. Besides, the BiP protein level entry in series [3] is “increased”.
For the compound `N=C(N)N/N=C/c1c(Cl)cccc1Cl` [GBZ, guanabenz], in series [1], the CHOP10 protein content entry is “increase” and the “eIF2α phosphorylation (peIF2α), protein level” value was “maintained in a phosphorylated status”. Besides, in series [2], the “a wave amplitude, scotopic ERG” value was “significantly increased”; the “b wave amplitude, scotopic ERG” value is given as “significantly increased”; the “scotopic ERG recording” value is recorded as “clear amelioration”. In series [3], the “phosphorylated status of eIF2α” value is on record as “increased”.
